For this experiment, the target named is T1, canine TRPM8 (Canis lupus familiaris, UniProt Q1A7N1).
T1 construct: expressed in transfected cells
Put plainly: In Vitro Canine TRPM8 Functional Assay (intracellular Ca2+ fluorescence, icilin activation, HEK293 cells). It is filed as cell-based. The conditions noted are these: for IC50: HEK293 cells expressing canine TRPM8, icilin activation, individually measured values (batches/salt forms), read-out: IC50 (nM), in vitro TRP M8 Activity; for inhibition at 0.2 µM: HEK293, 0.2 μM test compound, individually measured values, read-out: % Inh (%) @0.2 μM, in vitro TRP M8 Activity. The protocol:
The changes in fluorescent signal were monitored by a fluorescence plate reader, either a FLIPR™ (Molecular Devices) or FDSS (Hamamatsu). […] Cells were maintained in 5% CO2 at 37° C. At 24 hr prior to assay, cells were seeded in black wall, clear-base poly-D-lysine coated 384-well plates (BD Biosciences, NJ, USA) at a density of 5,000 cells per well in culture medium and grown overnight in 5% CO2 at 37° C. On assay day, growth media was removed, and cells were loaded with Calcium 3 Dye (Molecular Devices) for 35 min at 37° C., under 5% CO2 and then incubated for 25 min at room temperature and atmosphere. Subsequently, cells were tested for agonist-induced increases in intracellular Ca^2+ levels using FLIPR™ or FDSS. […] Maximal fluorescence intensity (FI) achieved upon addition of icilin was exported from the FLIPR™ or FDSS software and further analyzed using GraphPad Prism 3.02 (Graph Pad Software Inc., CA, U.S.A.). Basal FI was subtracted prior to normalizing data to percent of maximal response. Curves were generated using the average of quadruplicate wells for each data point using nonlinear regression of either sigmoidal dose response or sigmoidal dose response (variable slope). Finally, IC50 values were calculated with the best-fit curve determined by GraphPad Prism

A word on the IC50: it is the point on the concentration scale where inhibition reaches its midpoint.

“And” between values parts separate entries of the source, which are not always exact repeats. Equal entries are not always repeated. Structures can show the parent of a compound that is named as a salt.

T1 sequence (Q1A7N1 1-1104): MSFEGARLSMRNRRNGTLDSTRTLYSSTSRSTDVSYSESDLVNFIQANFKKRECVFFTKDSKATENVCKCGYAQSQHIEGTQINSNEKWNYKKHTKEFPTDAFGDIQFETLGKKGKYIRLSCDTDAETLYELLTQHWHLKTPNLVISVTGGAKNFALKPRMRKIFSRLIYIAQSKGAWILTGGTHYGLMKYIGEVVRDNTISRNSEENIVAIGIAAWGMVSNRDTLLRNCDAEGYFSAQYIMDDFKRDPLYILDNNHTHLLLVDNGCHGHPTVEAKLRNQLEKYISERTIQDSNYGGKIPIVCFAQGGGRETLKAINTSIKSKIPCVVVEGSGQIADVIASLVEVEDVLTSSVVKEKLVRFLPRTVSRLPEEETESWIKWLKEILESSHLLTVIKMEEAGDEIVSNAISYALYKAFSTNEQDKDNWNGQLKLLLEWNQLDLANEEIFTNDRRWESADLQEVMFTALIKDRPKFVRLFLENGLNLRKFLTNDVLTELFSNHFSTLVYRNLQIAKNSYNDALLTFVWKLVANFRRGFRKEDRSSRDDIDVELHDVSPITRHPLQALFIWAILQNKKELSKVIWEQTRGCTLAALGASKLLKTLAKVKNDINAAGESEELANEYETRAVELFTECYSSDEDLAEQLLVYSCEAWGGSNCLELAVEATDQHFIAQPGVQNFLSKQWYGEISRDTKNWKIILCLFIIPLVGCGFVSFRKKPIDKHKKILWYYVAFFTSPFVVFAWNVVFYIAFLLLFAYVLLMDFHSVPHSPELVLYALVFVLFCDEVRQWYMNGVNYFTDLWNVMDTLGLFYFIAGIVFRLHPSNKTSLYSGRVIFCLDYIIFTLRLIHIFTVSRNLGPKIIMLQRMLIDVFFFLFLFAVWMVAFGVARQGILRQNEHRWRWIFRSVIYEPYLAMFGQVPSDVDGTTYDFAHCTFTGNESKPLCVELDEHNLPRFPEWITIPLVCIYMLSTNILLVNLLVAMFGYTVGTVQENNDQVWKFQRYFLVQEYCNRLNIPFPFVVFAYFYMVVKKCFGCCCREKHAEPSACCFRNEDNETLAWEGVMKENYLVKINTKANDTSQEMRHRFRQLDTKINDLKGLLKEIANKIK

Consider `CC(C)(C)Cc1cc(-c2nc3ccc(-c4ccccc4OC(F)(F)F)cc3[nH]2)on1` [Compound 21, 2-[3-(2,2-Dimethylpropyl)-isoxazol-5-yl]-6-(2-trifluoromethoxyphenyl)-1H-benzimidazole hydrochloride], for which the IC50 was found to be 29 nM.
On to `Cn1nc2c(c1-c1nc3cc(-c4ccccc4C(F)(F)F)cc(C(F)(F)F)c3[nH]1)CCC21CCCCC1` [Compound 189], for which the inhibition at 0.2 µM worked out at 99% and the IC50 is 10.6 nM.
`Cc1c(C(C)(C)C)nn(C)c1-c1nc2cc(-c3c(F)cccc3C(F)(F)F)cc(Cl)c2[nH]1` [Compound 137, 2-(5-tert-Butyl-2,4-dimethyl-2H-pyrazol-3-yl)-7-chloro-5-(2-fluoro-6-trifluoromethyl-phenyl)-1H-benzimidazole hydrochloride]: the inhibition at 0.2 µM amounted to 99%; the IC50 was 3 nM and 4.7 nM.
As to `FC(F)(F)c1ccccc1-c1ccc2[nH]c(-c3cc(Cl)no3)nc2c1` [Compound 33, 2-(3-Chloroisoxazol-5-yl)-5-(2-trifluoromethylphenyl)-1H-benzimidazole sodium salt], the IC50 came out at 145 nM.
As for `Cn1nc(C(C)(C)C)c(Cl)c1-c1nc2cc(-c3ccccc3OC(F)(F)F)ccc2[nH]1` [Compound 51, 2-(5-tert-Butyl-4-chloro-2-methyl-2H-pyrazol-3-yl)-5-(2-trifluoromethoxyphenyl)-1H-benzimidazole sodium salt], the IC50 is 27 nM.
Turning to `Cc1oc(C(C)(C)C)nc1-c1nc2cc(-c3ccccc3Cl)cc(Cl)c2[nH]1` [Compound 163, 2-(2-tert-Butyl-5-methyl-oxazol-4-yl)-7-chloro-5-(2-chloro-phenyl)-1H-benzimidazole hydrochloride], the inhibition at 0.2 µM was 62%.
Regarding `Cc1c(C(C)(C)C)noc1-c1nc2cc(-c3ccccc3C(F)(F)F)ccc2[nH]1` [Compound 108, 2-(3-tert-Butyl-4-methyl-isoxazol-5-yl)-5-(2-trifluoromethyl-phenyl)-1H-benzimidazole hydrochloride], the IC50 amounted to 10.2 nM.
Still for that read-out and setting: with `Cc1c(C(C)(C)C)nn(C)c1-c1nc2cc(-c3c(F)cccc3F)cc(C(F)(F)F)c2[nH]1` [Compound 122, 2-(5-tert-Butyl-2,4-dimethyl-2H-pyrazol-3-yl)-5-(2,6-difluoro-phenyl)-7-trifluoromethyl-1H-benzimidazole hydrochloride] the figure was 5.5 nM.
On to `Cc1nc(C(C)(C)C)oc1-c1nc2cc(-c3ccccc3OC(F)(F)F)cc(Cl)c2[nH]1` [Compound 183, 2-(2-tert-Butyl-4-methyl-oxazol-5-yl)-7-chloro-5-(2-trifluoromethoxy-phenyl)-1H-benzimidazole hydrochloride], for which the inhibition at 0.2 µM was 4%.
As for `Cc1oc(C(C)(C)C)cc1-c1nc2cc(-c3ccccc3F)ccc2[nH]1` [Compound 174, 2-(5-tert-Butyl-2-methyl-furan-3-yl)-5-(2-fluoro-phenyl)-1H-benzimidazole sodium salt], the inhibition at 0.2 µM is 83% and the 50% inhibitory concentration (IC50) was 33.4 nM.
`Cn1nc(C(C)(C)C)cc1-c1nc2cc(-c3ccccc3OC(F)(F)F)ccc2[nH]1` [Compound 14, 2-(5-tert-Butyl-2-methyl-2H-pyrazol-3-yl)-5-(2-trifluoromethoxyphenyl)-1H-benzimidazole sodium salt]: the IC50 is 44 nM.
On the same count and under the same terms, next, `FC(F)(F)Oc1ccccc1-c1ccc2[nH]c(-c3cc(C4CC4)no3)nc2c1` [Compound 17, 2-(3-cyclopropylisoxazol-5-yl)-5-(2-trifluoromethoxyphenyl)-1H-benzimidazole sodium salt]: 52 nM; `FC(F)(F)c1ccccc1-c1ccc2[nH]c(-c3cc(C4CCCC4)no3)nc2c1` [Compound 92, 2-(3-Cyclopentylisoxazol-5-yl)-5-(2-trifluoromethylphenyl)-1H-benzimidazole]: 24.5 nM.
With `Cn1nc(C(C)(C)C)c(Cl)c1-c1nc2cc(-c3c(F)cccc3F)cc(C(F)(F)F)c2[nH]1` [Compound 124, 2-(5-tert-Butyl-4-chloro-2-methyl-2H-pyrazol-3-yl)-5-(2,6-difluoro-phenyl)-7-trifluoromethyl-1H-benzimidazole hydrochloride], the inhibition at 0.2 µM was 99%; the 50% inhibitory concentration (IC50) is 7.3 nM and 4.4 nM.
As to `Cc1oc(C(C)(C)C)nc1-c1nc2cc(-c3ccccc3Cl)cc(C(F)(F)F)c2[nH]1` [Compound 155, 2-(2-tert-Butyl-5-methyl-oxazol-4-yl)-5-(2-chloro-phenyl)-7-trifluoromethyl-1H-benzimidazole hydrochloride], the inhibition at 0.2 µM amounted to 59%.
With `CC(C)(C)c1cc(-c2nc3cc(-c4c(F)cccc4OC(F)(F)F)ccc3[nH]2)on1` [Compound 103, 2-(3-tert-Butyl-isoxazol-5-yl)-5-(2-fluoro-6-trifluoromethoxy-phenyl)-1H-benzimidazole hydrochloride], the IC50 was 4.5 nM.
The same measure, in the same setting: next, `Cn1nc(C2CCC2)cc1-c1nc2cc(-c3ccccc3OC(F)(F)F)ccc2[nH]1` [Compound 38, 2-(5-Cyclobutyl-2-methyl-2H-pyrazol-3-yl)-5-(2-trifluoromethoxy-phenyl)-1H-benzimidazole sodium salt]: 55.8 nM.
Consider `Cn1nc(C(C)(C)C)c(C(F)(F)F)c1-c1nc2cc(-c3ccccc3C(F)(F)F)cc(C(F)(F)F)c2[nH]1` [Compound 187, 2-(5-tert-Butyl-2-methyl-4-trifluoromethyl-2H-pyrazol-3-yl)-7-trifluoromethyl-5-(2-trifluoromethyl-phenyl)-1H-benzimidazole sodium salt], for which the inhibition at 0.2 µM was determined as 100% and the IC50 turned out to be 14.7 nM.
For the compound `COc1cccc(F)c1-c1ccc2[nH]c(-c3cc(C(C)(C)C)no3)nc2c1` [Compound 64, 2-(3-tert-Butyl-isoxazol-5-yl)-5-(2-fluoro-6-methoxy-phenyl)-1H-benzimidazole trifluoroacetic acid salt], the IC50 is 8.7 nM.
Consider `Cc1c(C(C)(C)C)noc1-c1nc2cc(-c3ccccc3Cl)ccc2[nH]1` [Compound 107, 2-(3-tert-Butyl-4-methyl-isoxazol-5-yl)-5-(2-chloro-phenyl)-1H-benzimidazole hydrochloride], for which the IC50 was 11.9 nM.
For `Cc1oc(-c2nc3cc(-c4ccccc4C(F)(F)F)cc(C(F)(F)F)c3[nH]2)nc1C(C)(C)C` [Compound 194, 2-(4-tert-Butyl-5-methyl-oxazol-2-yl)-7-trifluoromethyl-5-(2-trifluoromethyl-phenyl)-1H-benzimidazole hydrochloride], the inhibition at 0.2 µM stood at 63%.
On the same count and under the same terms, next, `Cc1oc(C(C)(C)C)nc1-c1nc2cc(-c3ccccc3OC(F)(F)F)cc(C(F)(F)F)c2[nH]1` [Compound 156, 2-(2-tert-Butyl-5-methyl-oxazol-4-yl)-5-(2-trifluoromethoxy-phenyl)-7-trifluoromethyl-1H-benzimidazole hydrochloride]: 58%.
Regarding `Cn1nc(C2(C)CC2)cc1-c1nc2cc(-c3ccccc3OC(F)(F)F)ccc2[nH]1` [Compound 53, 2-[2-Methyl-5-(1-methylcyclopropyl)-2H-pyrazol-3-yl]-5-(2-trifluoromethoxyphenyl)-1H-benzimidazole sodium salt], the IC50 is 41.7 nM.
For the compound `Cc1nc(C(C)(C)C)oc1-c1nc2cc(-c3ccccc3OC(F)(F)F)cc(C(F)(F)F)c2[nH]1` [Compound 176, 2-(2-tert-Butyl-4-methyl-oxazol-5-yl)-5-(2-trifluoromethoxy-phenyl)-7-trifluoromethyl-1H-benzimidazole hydrochloride], the inhibition at 0.2 µM was 60%.
On to `Cn1nc(C(C)(C)C)c(Cl)c1-c1nc2cc(-c3c(F)cccc3OC(F)(F)F)ccc2[nH]1` [Compound 88, 2-(5-tert-Butyl-4-chloro-2-methyl-2H-pyrazol-3-yl)-5-(2-fluoro-6-trifluoromethoxy-phenyl)-1H-benzimidazole hydrochloride], for which the IC50 was 3.6 nM and 9.7 nM.
With `Cc1oc(-c2nc3cc(-c4ccccc4OC(F)(F)F)cc(C(F)(F)F)c3[nH]2)nc1C(C)(C)C` [Compound 195, 2-(4-tert-Butyl-5-methyl-oxazol-2-yl)-5-(2-trifluoromethoxy-phenyl)-7-trifluoromethyl-1H-benzimidazole hydrochloride], the inhibition at 0.2 µM came out at 46%.
As for `Cn1nc(C(C)(C)C)c(C#N)c1-c1nc2cc(-c3ccccc3F)cc(Cl)c2[nH]1` [Compound 167, 3-tert-Butyl-5-[7-chloro-5-(2-fluoro-phenyl)-1H-benzimidazol-2-yl]-1-methyl-1H-pyrazole-4-carbonitrile sodium salt], the inhibition at 0.2 µM amounted to 100% and the IC50 is 9.8 nM.
On to `COc1cccc(OC)c1-c1ccc2[nH]c(-c3cc(C(C)(C)C)nn3C)nc2c1` [Compound 54, 2-(5-tert-Butyl-2-methyl-2H-pyrazol-3-yl)-5-(2,6-dimethoxy-phenyl)-1H-benzimidazole trifluoroacetic acid salt], for which the IC50 came out at 3.1 nM.
Same read-out and setting: with `CC(C)(C)c1cc(-c2nc3cc(-c4ccccc4OC(F)(F)F)ccc3[nH]2)n(Cc2ccccc2)n1` [Compound 49, 2-(5-tert-Butyl-2-benzyl-2H-pyrazol-3-yl)-5-(2-trifluoromethoxyphenyl)-1H-benzimidazole sodium salt] the figure was 42.3 nM.

Values taken from patent US20120202856A1, “SUBSTITUTED BENZIMDAZOLE DERIVATIVES USEFUL AS TRPM8 RECEPTOR MODULATORS” (priority 2011, published 2012).
